According to the NIST ThermoML archive (doi:10.1016/j.jct.2012.08.010):
Numbers after ± are expanded uncertainties.

Experiment: refractive index (Na D-line) (dimensionless); φn = volume fraction of the nth substance listed
Conditions: 101 kPa, Liquid, Standard Abbe refractometry

For `C=C[Si]1(C)O[Si](C)(C=C)O[Si](C)(C=C)O[Si](C)(C=C)O1` (stereo not given) [2,4,6,8-tetramethyl-2,4,6,8-tetravinylcycloterasiloxane] + Cc1cccc(C)c1, the refractive index (288.15 K, φ1 = 0.1301) was 1.4916 ± 0.0003, the refractive index (288.15 K, φ1 = 0.2524) was 1.48392 ± 0.00031 and the refractive index (288.15 K, φ1 = 0.3347) was 1.47877 ± 0.00031. The refractive index (288.15 K, φ1 = 0.4159) was 1.47367 ± 0.00031, the refractive index (288.15 K, φ1 = 0.4865) was 1.46917 ± 0.00032 and the refractive index (288.15 K, φ1 = 0.5517) was 1.46505 ± 0.00032. The refractive index (288.15 K, φ1 = 0.5985) was 1.46211 ± 0.00032, the refractive index (288.15 K, φ1 = 0.653) was 1.45885 ± 0.00032 and the refractive index (288.15 K, φ1 = 0.6984) was 1.45591 ± 0.00032. The refractive index (288.15 K, φ1 = 0.7389) was 1.45344 ± 0.00032, the refractive index (288.15 K, φ1 = 0.776) was 1.45106 ± 0.00032 and the refractive index (288.15 K, φ1 = 0.8087) was 1.44894 ± 0.00032. The refractive index (288.15 K, φ1 = 0.8405) was 1.44691 ± 0.00032, the refractive index (288.15 K, φ1 = 0.866) was 1.44524 ± 0.00032 and the refractive index (288.15 K, φ1 = 0.8941) was 1.44346 ± 0.00032. For the same molecule, the refractive index (288.15 K, φ1 = 0.9183) was 1.44189 ± 0.00032, the refractive index (288.15 K, φ1 = 0.941) was 1.44046 ± 0.00032 and the refractive index (288.15 K, φ1 = 0.9804) was 1.43797 ± 0.00033. The refractive index (288.15 K, φ1 = 1) was 1.43674 ± 0.00033, the refractive index (298.15 K, φ1 = 0.1302) was 1.48641 ± 0.00031 and the refractive index (298.15 K, φ1 = 0.2525) was 1.4788 ± 0.0003. It also gave a refractive index (298.15 K, φ1 = 0.3347) of 1.47372 ± 0.00031, a refractive index (298.15 K, φ1 = 0.416) of 1.46865 ± 0.00031 and a refractive index (298.15 K, φ1 = 0.4866) of 1.46426 ± 0.00032. For the same molecule, the refractive index (298.15 K, φ1 = 0.5518) was 1.46017 ± 0.00032, the refractive index (298.15 K, φ1 = 0.5986) was 1.45726 ± 0.00032 and the refractive index (298.15 K, φ1 = 0.6531) was 1.454 ± 0.001. The refractive index (298.15 K, φ1 = 0.6984) was 1.45105 ± 0.00032, the refractive index (298.15 K, φ1 = 0.7389) was 1.44845 ± 0.00032 and the refractive index (298.15 K, φ1 = 0.7761) was 1.4461 ± 0.0003. The refractive index (298.15 K, φ1 = 0.8087) was 1.44408 ± 0.00032, the refractive index (298.15 K, φ1 = 0.8405) was 1.44212 ± 0.00032 and the refractive index (298.15 K, φ1 = 0.866) was 1.44048 ± 0.00032. For the same molecule, the refractive index (298.15 K, φ1 = 0.8941) was 1.4387 ± 0.0003, the refractive index (298.15 K, φ1 = 0.9183) was 1.43717 ± 0.00032 and the refractive index (298.15 K, φ1 = 0.941) was 1.43574 ± 0.00032. It also gave a refractive index (298.15 K, φ1 = 0.9804) of 1.43324 ± 0.00033, a refractive index (298.15 K, φ1 = 1) of 1.43202 ± 0.00033 and a refractive index (308.15 K, φ1 = 0.1302) of 1.48109 ± 0.00031. For the same molecule, the refractive index (308.15 K, φ1 = 0.2525) was 1.47359 ± 0.00031, the refractive index (308.15 K, φ1 = 0.3348) was 1.46856 ± 0.00031 and the refractive index (308.15 K, φ1 = 0.4161) was 1.46354 ± 0.00031. It also gave a refractive index (308.15 K, φ1 = 0.4867) of 1.45917 ± 0.00032, a refractive index (308.15 K, φ1 = 0.5519) of 1.45513 ± 0.00032 and a refractive index (308.15 K, φ1 = 0.5987) of 1.45223 ± 0.00032. The refractive index (308.15 K, φ1 = 0.6532) was 1.44903 ± 0.00032, the refractive index (308.15 K, φ1 = 0.6985) was 1.4461 ± 0.0003 and the refractive index (308.15 K, φ1 = 0.739) was 1.44355 ± 0.00032. The refractive index (308.15 K, φ1 = 0.7761) was 1.44125 ± 0.00032, the refractive index (308.15 K, φ1 = 0.8088) was 1.43919 ± 0.00032 and the refractive index (308.15 K, φ1 = 0.8406) was 1.43727 ± 0.00032. The refractive index (308.15 K, φ1 = 0.8661) was 1.43566 ± 0.00032, the refractive index (308.15 K, φ1 = 0.8942) was 1.43391 ± 0.00032 and the refractive index (308.15 K, φ1 = 0.9183) was 1.4324 ± 0.0003. It also gave a refractive index (308.15 K, φ1 = 0.941) of 1.43098 ± 0.00032, a refractive index (308.15 K, φ1 = 0.9804) of 1.4285 ± 0.0003 and a refractive index (308.15 K, φ1 = 1) of 1.4273 ± 0.0003. The refractive index (318.15 K, φ1 = 0.1303) was 1.47582 ± 0.00031, the refractive index (318.15 K, φ1 = 0.2526) was 1.46841 ± 0.00031 and the refractive index (318.15 K, φ1 = 0.3349) was 1.46342 ± 0.00031. For the same molecule, the refractive index (318.15 K, φ1 = 0.4162) was 1.45843 ± 0.00031, the refractive index (318.15 K, φ1 = 0.4867) was 1.45413 ± 0.00032 and the refractive index (318.15 K, φ1 = 0.5519) was 1.45015 ± 0.00032. For the same molecule, the refractive index (318.15 K, φ1 = 0.5988) was 1.44727 ± 0.00032, the refractive index (318.15 K, φ1 = 0.6533) was 1.44383 ± 0.00032 and the refractive index (318.15 K, φ1 = 0.6986) was 1.44117 ± 0.00032. The refractive index (318.15 K, φ1 = 0.7391) was 1.43865 ± 0.00032, the refractive index (318.15 K, φ1 = 0.7762) was 1.43639 ± 0.00032 and the refractive index (318.15 K, φ1 = 0.8088) was 1.43434 ± 0.00032. It also gave a refractive index (318.15 K, φ1 = 0.8406) of 1.43244 ± 0.00032, a refractive index (318.15 K, φ1 = 0.8661) of 1.43085 ± 0.00032 and a refractive index (318.15 K, φ1 = 0.8942) of 1.42911 ± 0.00032. The refractive index (318.15 K, φ1 = 0.9184) was 1.42763 ± 0.00032, the refractive index (318.15 K, φ1 = 0.9411) was 1.42622 ± 0.00032 and the refractive index (318.15 K, φ1 = 0.9804) was 1.42377 ± 0.00033. For the same molecule, the refractive index (318.15 K, φ1 = 1) was 1.42257 ± 0.00033, the refractive index (328.15 K, φ1 = 0.1303) was 1.47053 ± 0.00031 and the refractive index (328.15 K, φ1 = 0.2526) was 1.46321 ± 0.00031. It also gave a refractive index (328.15 K, φ1 = 0.335) of 1.45825 ± 0.00031, a refractive index (328.15 K, φ1 = 0.4163) of 1.45333 ± 0.00031 and a refractive index (328.15 K, φ1 = 0.4868) of 1.44908 ± 0.00032. For the same molecule, the refractive index (328.15 K, φ1 = 0.552) was 1.44511 ± 0.00032, the refractive index (328.15 K, φ1 = 0.5988) was 1.44229 ± 0.00032 and the refractive index (328.15 K, φ1 = 0.6533) was 1.43851 ± 0.00032. The refractive index (328.15 K, φ1 = 0.6986) was 1.43604 ± 0.00032, the refractive index (328.15 K, φ1 = 0.7391) was 1.43374 ± 0.00032 and the refractive index (328.15 K, φ1 = 0.7762) was 1.43152 ± 0.00032. For the same molecule, the refractive index (328.15 K, φ1 = 0.8089) was 1.42952 ± 0.00032, the refractive index (328.15 K, φ1 = 0.8407) was 1.42761 ± 0.00032 and the refractive index (328.15 K, φ1 = 0.8661) was 1.42604 ± 0.00032. It also gave a refractive index (328.15 K, φ1 = 0.8942) of 1.42434 ± 0.00032, a refractive index (328.15 K, φ1 = 0.9184) of 1.42285 ± 0.00032 and a refractive index (328.15 K, φ1 = 0.9411) of 1.42145 ± 0.00032. The refractive index (328.15 K, φ1 = 0.9804) was 1.41904 ± 0.00033 and the refractive index (328.15 K, φ1 = 1) was 1.41785 ± 0.00033.
